Data taken from ChEMBL document CHEMBL4342461, “Schwarzinicines A-G, 1,4-Diarylbutanoid-Phenethylamine Conjugates from the Leaves of Ficus schwarzii” (J Nat Prod, 2020).

Tests used:
Aorta [1] = test: Vasorelaxant activity in Sprague-Dawley rat aortic rings assessed as reduction in phenylephrine-induced contractions by measuring maximum relaxation magnitude relative to control; assay type: functional
Aorta [2] = test: Vasorelaxant activity in Sprague-Dawley rat aortic rings assessed as reduction in phenylephrine-induced contractions; assay type: functional, tissue-based
HCT-116 = test: Cytotoxicity against human HCT116 cells after 72 hrs by neutral red uptake assay; assay type: cell-based; conditions: HCT-116, 72 h
MCF7 = test: Cytotoxicity against human MCF7 cells after 72 hrs by neutral red uptake assay; assay type: cell-based; conditions: MCF7, 72 h
A549 = test: Cytotoxicity against human A549 cells after 72 hrs by neutral red uptake assay; assay type: cell-based; conditions: A549, 72 h

EC50 (Aorta [2]) [nM]	Compound	Emax (Aorta [1]) [%]	Activity (Aorta [2])	IC50 (HCT-116) [nM]	IC50 (MCF7) [nM]	IC50 (A549) [nM]
1880	COc1ccc(CCC(Cc2ccc(OC)c(OC)c2)NCCc2ccc3c(c2)OCO3)cc1OC (stereo not drawn)	120	Dose-dependent effect	–	–	–
960	COc1ccc(CCC(Cc2ccc(OC)c(OC)c2)N(C)CCc2ccc(OC)c(OC)c2)cc1OC (stereo not drawn)	106	Dose-dependent effect	> 10000	> 10000	> 10000
2500	CC(CCc1ccc(O)cc1)NCCc1ccc(O)c(O)c1 (stereo not drawn) [DOBUTAMINE]	92	–	–	–	–
–	CC[C@]1(O)C[C@@H]2CN(CCc3c([nH]c4ccccc34)[C@@](C(=O)OC)(c3cc4c(cc3OC)N(C)[C@H]3[C@@](O)(C(=O)OC)[C@H](OC(C)=O)[C@]5(CC)C=CCN6CC[C@]43[C@@H]65)C2)C1 [VINBLASTINE]	–	–	0.5	1	10
2010	COc1ccc(CCNC(CCc2ccc(OC)c(OC)c2)Cc2ccc(OC)c(OC)c2)cc1OC (stereo not drawn)	119	Dose-dependent effect	> 10000	> 10000	> 10000
2100	COc1ccc(CCC(Cc2ccc(OC)c(OC)c2)NCCc2cc(OC)c3c(c2)OCO3)cc1OC (stereo not drawn)	116	Dose-dependent effect	–	–	–
